The text below walks through data of patent US6469209B1, “Acrylate-type fungicide” (Dongbu Hannong Chemical Co., Ltd., priority 1999, dated 2002).

Like-named read-outs stand apart in the source and are kept apart here.

One test relates to Rhizoctonia solani AG-1. Kind of test: Protective effect test on rice sheath blight (RSB). Format: in vivo.
A further test relates to Phytophthora infestans. Format: in vivo. Particulars: sprayed on tomato one day before inoculation.
In the next test the test system is Pythium ultimum. Put plainly: Protective effect test on cucumber damping off (CDO). Format: in vivo. The conditions noted are these: soil irrigation (10 mL), disease index after 7 days. On the procedure:
The potato mixture was inoculated with a plant pat hogen causing cucumber damping off, Pythium ultimum, incubated at 25° C. for 15 days in a growth chamb e r and used as inoculum. Soil (150 mL) prepared by mixing vermiculite and field soil (1:1) was sterilized and mixed with the potato mixture (1 g) to use it as inoculum. After filling the inoculated soil in the pot (diameter 9 cm), five cucumber seeds (house Baekdadagio® cucumber) were sown in the above pot and irrigated with the agricultural fungicidal compositions (10 mL) prepared at the appropriate concentrations. Seven days after the treating with the agricultural fungicidal compositions, a degree of the disease induction was examined based upon criteria for determining the disease index, and control efficacy was determined according to the above examination. The criteria was listed in the following. Criteria 4: seeds don't germinate due to disease outbreak. 3: a young seedling dies in the middle of emergence. 2: ground surface is narrowed due to disease outbreak. 1: growth is poor due to disease outbreak of partial roots. 0: healthy plant […] For only cucumber damping off, it was examined according to the above-mentioned separate criteria.

A further test deals with Sphaerotheca fuliginea. Kind of test: Protective effect test on cucumber powdery mildew (CPM). Format: in vivo. The conditions noted are these: sprayed on cucumber one day before inoculation. On the procedure: A plant pathogen, Sphaerotheca fuliginea, was prepared by collecting the diseased leaves of cucumber grown in a vinylhouse, and its spores were suspended in sterilized water. The concentration of the pathogenic spores was adjusted to 10^5 spores/mL and used as inoculum. After a cucumber seed (house ‘Baekdadagi®’ cucumber) was sown in a small pot (diameter 6.5 cm), it was grown in a greenhouse for two weeks and young seedlings with the first true completely open leaf were used for test. After the young seedlings of the cucumber in the small pots were sprayed with agricultural fungicidal compositions prepared at the appropriate concentrations, they were left for 1 day in a greenhouse to dry the fungicidal compositions. The young seedlings of cucumber were inoculated with the prepared pathogenic spores of cucumber powdery mildew by spraying and incubated for 10 days in a green house to induce the disease. A ratio of the diseased areas to total areas of the first true completely open leaves was determined according to the criteria for determining a degree of disease induction. […] For only cucumber damping off, it was examined according to the above-mentioned separate criteria.

The subject of a further test is Venturia inaequalis. Kind of test: Protective effect test on apple scab (APS). Format: in vivo. The conditions noted are these: apple seedlings treated one day before inoculation.
Test [1] has as its system Colletotrichum lagenarium. Put plainly: Protective effect test on cucumber anthracnose (CUA). Format: in vivo. The conditions noted are these: cucumber treated one day before inoculation.
A further test concerns Botrytis cinerea. Kind of test: Protective effect test on cucumber gray mould (CGM). Format: in vivo.
Another test concerns Bipolaris maydis. Kind of test: Protective effect test on southern corn leaf blight (CLB). Format: in vivo. The conditions noted are these: corn treated one day before inoculation. On the procedure: A plant pathogen, Bipolaris maydis, was inoculated on the Difco Lima Bean Agar (10 g/L) medium containing 10 g/L dextrose, and incubated at 24° C. with and without fluorescent light for 12 hours each time for 7 days in a growth chamber. After forming spores, the conidiospore was harvested in Tween-20 solution (250 ppm), adjusted at the concentration of 5×10^5 spores/ml and used as inoculum. The southern corn (golden crossbantam 70) for test was grown to be at 4 or 5-leaf stage in a greenhouse. One day after the treating with the agricultural fungicidal compositions, the inoculum was sprayed an young seedlings of the corn, and incubated at 27° C. and 100% relative humidity for 24 hours in a dew chamber to infiltrate the pathogen. The young seedling were incubated at 27° C. and 90% relative humidity for 3 days in a growth chamber to induce the disease. A ratio of diseased areas to total areas of the corn leaves was examined according to the criteria for determining a degree of disease induction.
In the above experiment 2, control value of the compound on the tested pathogens was calculated according to the following mathematical formula 1, and the results were shown in Table 2. For only cucumber damping off, it was examined according to the above-mentioned separate criteria.
Control value(%)=(1—the ratio of diseased area in the treated plant/the ratio of diseased area in the untreated plant)×100

Test [2] has as its system Pyricularia oryzae Cavara KJ301 strain. Format: in vivo. Particulars: sprayed on rice one day before inoculation.
Test [3] has the same test system. Format: in vivo. The conditions noted are these: 100 ppm, soil irrigation (10 mL) 24 hours before inoculation.
For test [4] the test system is unchanged. Format: in vivo. Particulars: sprayed one day after inoculation.
Test [5] has as its system Puccinia recondita. Put plainly: Protective effect test on wheat leaf rust (WLR). Format: in vivo.
Test [6] has as its system Erysiphe graminis f. sp. hordei. Kind of test: Protective effect test on barley powdery mildew (BPM). Format: in vivo.
Test [7] deals with Puccinia recondita. Put plainly: Systemic effect test on wheat leaf rust. Format: in vivo.
In test [8] the test system is Puccinia recondita. Particulars: in vivo.
For test [9], the system named is Erysiphe graminis f. sp. hordei. Kind of test: Systemic effect test on barley powdery mildew. Format: in vivo. Particulars: soil irrigation (10 mL) 24 hours before inoculation.
For test [10] the test system is unchanged. The conditions noted are these: in vivo.

`OCC1=C[C@H](N[C@H]2C[C@H](CO)[C@@H](O[C@@H]3O[C@H](CO)[C@@H](O)[C@H](O)[C@H]3O)[C@H](O)[C@H]2O)[C@H](O)[C@@H](O)[C@@H]1O` [B, Validamycin, reference compound]: the “Control value (%) RSB” value in the test with Rhizoctonia solani AG-1 (in vivo) came out at 50%.
Turning to `COc1ccc(C(=CC(=O)N2CCOCC2)c2ccc(Cl)cc2)cc1OC` [D, Dimethomotph, reference compound], the “Control value (%) TLB” value in the test on Phytophthora infestans (10 ppm) is recorded as 80%.
`CCCCNC(=O)n1c(NC(=O)OC)nc2ccccc21` [K, Benomyl, reference compound]: the “Control value (%) CDO” value in the test on Pythium ultimum (10 ppm) worked out at 20%. Besides, the “Control value (%) CPM” value with Sphaerotheca fuliginea (10 ppm) amounted to 85%. Also, the “Control value (%) APS” value in the test on Venturia inaequalis (10 ppm) was 85%. In addition, in test [1] (10 ppm), the “Control value (%) CUA” value is recorded as 65%.
On to `CC12CC1(C)C(=O)N(c1cc(Cl)cc(Cl)c1)C2=O` (stereo not shown) [C, Procymidone, reference compound], for which the “Control value (%) CGM” value with Botrytis cinerea (in vivo) is reported as 40%.
For the compound Mancozeb [L, reference compound], the “Control value (%) APS” value in the test with Venturia inaequalis (100 ppm) turned out to be 82%. In the test with Bipolaris maydis (100 ppm), the “Control value (%) CLB” value was 80%. The “Control value (%) CUA” value in test [1] (100 ppm) was 85%.
For the compound `Cc1cccc2sc3nncn3c12` [A, Tricyclazole], the “Control value (%) RCB” value in [2] (50 ppm) is recorded as 90%. Also, the “Control value (%) RCB S.E. (systemic effect)” value in test [3] is reported as 87%. The “Control value (%) RCB C.E. (curative effect)” value in test [4] (100 ppm) amounted to 0%.
For the compound `CNC(=O)/C(=N/OC)c1c(C)cccc1COc1ccccc1C` [The compound of formula 1, N-methyl E-2-((2-methylphenyl)oxymethyl)-6-methylphenylglyoxylamide O-methyl oxime], the “Control value (%) RCB” value in test [2] (2 ppm) and in test [2] (10 ppm) was 100% each time. Further, the “Control value (%) RSB” value in the test on Rhizoctonia solani AG-1 (2 ppm, sprayed on rice one day before inoculation) turned out to be 21%; with Rhizoctonia solani AG-1 (10 ppm, sprayed on rice one day before inoculation) it was 53%. In addition, the “Control value (%) CGM” value amounted to 30% with Botrytis cinerea (2 ppm, sprayed on cucumber one day before inoculation) and 40% in the test on Botrytis cinerea (10 ppm, sprayed on cucumber one day before inoculation). The “Control value (%) TLB” value in the test with Phytophthora infestans (2 ppm) is listed as 79%; in the test with Phytophthora infestans (10 ppm), 89%. Moreover, the “Control value (%) WLR” value in the test with Puccinia recondita [5] (2 ppm, sprayed on wheat one day before inoculation) came to 99%; in the test on Puccinia recondita [5] (10 ppm, sprayed on wheat one day before inoculation), 100%. Also, the “Control value (%) BPM” value stood at 98% in test [6] (2 ppm, sprayed on barley one day before inoculation) and 100% in [6] (10 ppm, sprayed on barley one day before inoculation). The “Control value (%) CDO” value with Pythium ultimum (1 ppm) came to 30%; in the test with Pythium ultimum (10 ppm), 100%; in the test with Pythium ultimum (100 ppm), 100%. Further, the entries for the “Control value (%) CPM” value in the test with Sphaerotheca fuliginea (1 ppm), with Sphaerotheca fuliginea (10 ppm) and in the test on Sphaerotheca fuliginea (100 ppm) were 80%, 100% and 100%, respectively. In addition, the entries for the “Control value (%) APS” value with Venturia inaequalis (1 ppm), in the test with Venturia inaequalis (10 ppm) and in the test with Venturia inaequalis (100 ppm) were 60%, 92% and 100%, respectively. Also, the “Control value (%) CLB” value in the test with Bipolaris maydis (10 ppm) amounted to 80%; in the test on Bipolaris maydis (100 ppm), 90%. Besides, the “Control value (%) CUA” value is 80% in test [1] (1 ppm), 100% in test [1] (10 ppm) and 100% in test [1] (100 ppm). The “Control value (%) RCB S.E. (systemic effect)” value in test [3] came out at 56%. For the same compound, the “Control value (%) RCB C.E. (curative effect)” value in [4] (10 ppm) was found to be 84%. The “Control value (%) WLB S.E. (systemic effect)” value with Puccinia recondita [7] (2 ppm, soil irrigation (10 mL) 24 hours before inoculation) stood at 43%; in the test with Puccinia recondita [7] (10 ppm, soil irrigation (10 mL) 24 hours before inoculation), 100%; in the test with Puccinia recondita [7] (100 ppm, soil irrigation (10 mL) 24 hours before inoculation), 100%. For the same compound, the “Control value (%) WLB C.E. (curative effect)” value in the test with Puccinia recondita [8] turned out to be 100%. The “Control value (%) BPM S.E. (systemic effect)” value in test [9] (2 ppm) was 67%; in [9] (10 ppm) it was 80%; in test [9] (100 ppm) it was 100%. Moreover, in test [10], the “Control value (%) BPM C.E. (curative effect)” value was found to be 100%.
As for `CO/N=C(/C(=O)OC)c1ccccc1COc1ccccc1C` [F, Kresoxim methyl, reference compound], the “Control value (%) RCB” value in test [2] (10 ppm) is reported as 98%. The “Control value (%) RSB” value in the test with Rhizoctonia solani AG-1 (in vivo) turned out to be 5%. Further, the “Control value (%) CGM” value in the test with Botrytis cinerea (in vivo) was found to be 10%. In addition, the “Control value (%) TLB” value in the test with Phytophthora infestans (10 ppm) was 57%. In addition, in the test with Puccinia recondita [5] (in vivo), the “Control value (%) WLR” value is 93%. The “Control value (%) BPM” value in test [6] (in vivo) is 94%. For the same compound, the “Control value (%) RCB S.E. (systemic effect)” value in [3] was 0%. Besides, the “Control value (%) RCB C.E. (curative effect)” value in [4] (10 ppm) stood at 39%. Besides, in the test with Puccinia recondita [7] (in vivo), the “Control value (%) WLB S.E. (systemic effect)” value was found to be 0%. Also, the “Control value (%) WLB C.E. (curative effect)” value in the test on Puccinia recondita [8] came to 0%. Moreover, the “Control value (%) BPM C.E. (curative effect)” value in test [10] is 50%.
As to `C[Si](Cn1cncn1)(c1ccc(F)cc1)c1ccc(F)cc1` [E, Flusilazole, reference compound], in the test on Puccinia recondita [5] (in vivo), the “Control value (%) WLR” value is listed as 85%. The “Control value (%) BPM” value in [6] (in vivo) is 85%. Moreover, the “Control value (%) WLB C.E. (curative effect)” value in the test with Puccinia recondita [8] was 97%. Further, the “Control value (%) BPM C.E. (curative effect)” value in test [10] is on record as 81%.
